Experimental data published in patent US5342604A (The Dow Chemical Company, priority 1992, dated 1994).
Read-outs that look alike come from different tables or passages of the source.

Key:
[1] = Lability of yttrium complexes on addition of excess metal; format: physicochemical; conditions: Y
Experimental: (§1) A disposable 10 ml plastic (Biorad) column was filled with 1 to 2 ml of water-swelled Sephadex™ C-25 cation exchange resin. The water was pressure eluted to the top of the resin. Fifteen μl of the complex (or more if counts were low) were added to the top of the resin. This was followed by 2 ml of 4:1 (V:V) isotonic saline:conc. ammonium hydroxide solution as an eluent which was allowed to drip into a counting tube. This was also pressure eluted to the top of the resin. An additional 2 ml of the eluent were added and the column pressure eluted to remove all liquid. The dried resin was then placed in a third counting tube and the three tubes counted on a NaI well counter using a Canberra multichannel analyzer linked to a computer. The percent complex was determined by dividing the number of counts in the two elutions by the total counts in the elutions plus the column, all times 100. By this method, uncomplexed yttrium was retained on the column.
The 1:1 complex of yttrium with 1-(p-aminobenzyl)diethylenetriaminepentaacetic acid (ABDTPA), a well known bifunctional chelant used in the literature, and with the ligand of Example 2 (Now Ex. XVI) and Example 12 (now Ex. XVII) were prepared using the techniques described earlier. Several 100 microliter aliquots were then withdrawn into separate centrifuge tubes. Excess metal was added such that the total volume change is minimized and the time noted. One-half hour after metal addition, the percent complex was determined by the Sephadex™ C-25 method and this was compared to the original amount of complex. The percent complex versus added metal gives an indication as to the lability of the ligand-metal complex. Results are given below and are compared to the EDTA-yttrium complex.

[2] = Inertness of antibody-complex conjugates challenged with excess DTPA; format: physicochemical; conditions: 1000 fold molar excess of DTPA, pH 7.4, one hour
Experimental: The purified antibody-complexes were added to HEPES buffer (N-2-hydroxyethylpiperazine-N'-2-ethanesulfonic acid) at pH 7.4 and treated with an appropriate amount of 0.1M DTPA solution (pH 7.4) to ensure a 1000 fold molar excess of DTPA over complex attached to antibody. After one hour an aliquot was removed and the antibody-complex conjugates were separated from low molecular weight substances using gel-filtration.

[3] = cited from earlier work
[4] = In vivo screening of bifunctional chelates: biodistribution, percent injected dose in liver; conditions: rat, i.v. tail vein, 2 hours
[5] = Percent complex determination, yttrium complexes (Sephadex C-25 cation exchange); format: physicochemical; conditions: Y
Experimental: The yttrium and/or samarium complexes of several of the compounds were prepared and percent complexation determined as follows:
Complexes were made by preparing a 0.0003M yttrium solution in water. (YCl3 ·6H2 O, 303.26 g/mole; Y(OAc)3, 12.1% H2 0). Radioactive YCl3 (Oakridge National Laboratories) was added to give the desired number of counts. Ten μl of ligand solution (at 0.03M) were added to 990 μl of the Y solution, giving a ligand-to-metal ratio of 1:1. (Ten times the amount of ligand solution was used for a 10:1 ligand to metal ratio.) The pH was then adjusted to 7.4 using microliter quantities of hydrochloric acid or sodium hydroxide. The solution was then tested for the amount of complexed yttrium using the cation exchange method given below.
as §1

[6] = rat, in vivo, iv, 120 min
[7] = rat, in vivo, 120 min
[8] = Percent complex determination, samarium complexes (Sephadex C-25 cation exchange); format: physicochemical; conditions: Sm
Experimental: as §1, with “100.” for “100. By this method, uncomplexed yttrium was retained on the column.”
Samarium complexes were formed as described previously for yttrium complexes except that 0.0003M samarium was prepared by dissolution of Sm2 03 (348.7 g mole) in 0.1M hydrochloric acid. […] Percent complex determination was made in the same manner as for the yttrium complex.

[9] = Biodistribution in rabbit; format: in vivo; conditions: Y-90, 10 times molar excess ligand
Experimental: Muscle was calculated using 46% of body weight.
A rabbit was injected in the same manner as the rats with a formulation having Y-90 with Y at 3×10^-4 M and the ligand of Example 10 at 10 times molar excess.

[10] = tested on: osteosarcoma in the right proximal humerus; assay: Treatment of a dog with osteosarcoma; format: in vivo; conditions: Sm-153, 300 times molar excess ligand, I.V. 0.95 mCi/Kg, one week after injection
Experimental: A dog was presented with an osteosarcoma in the right proximal humerus and walked with significant lameness. A complex was prepared using the ligand of Example 10 with a Sm-153 solution. The concentration of Sm was 3×10^-4 M and the ligand was used with a 300 times molar excess. The specific activity of the Sm-153 was 30 mCi/ml. The dog was given an I.V. injection of this complex containing 0.95 mCi of Sm-153 per Kg body weight of the dog.

Biodistribution in rats = conditions: 2 hours
[11] = radionuclide; cited from earlier work
[12] = Metal/Ligand Molar Ratio 10, one-half hour after metal addition
[13] = Metal/Ligand Molar Ratio 100, one-half hour after metal addition
[14] = Metal/Ligand Molar Ratio 250, one-half hour after metal addition
[15] = Metal/Ligand Molar Ratio 500, one-half hour after metal addition
[16] = Ho-166, 300 times molar excess ligand
[17] = Sm-153, 10 times molar excess ligand
[18] = Sm-153, 300 times molar excess ligand

Nc1ccc(CC(CN(CCN(CC(=O)O)CC(=O)O)CC(=O)O)N(CC(=O)O)CC(=O)O)cc1 (stereo not shown) [ABDTPA, 1-(p-aminobenzyl)diethylenetriaminepentaacetic acid]
% Complex ([1]; Metal/Ligand Molar Ratio 1): 97%
% Complex [1, 12]: 95%
% Complex [1, 13]: 92%
% Complex [1, 14]: 87%
% Complex [1, 15]: 70%
yttrium lost from antibody-complex conjugate [2]: over 98%

O=C(O)CN(CCN(CC(=O)O)CC(=O)O)CC(=O)O [EDTA, ethylenediaminetetraacetic acid]
% Complex ([1]; Metal/Ligand Molar Ratio 1): 98%
% Complex [1, 12]: 86%
% Complex [1, 13]: 78%
% Complex [1, 14]: 48%
% Complex [1, 15]: 16%
concentrations of radioactivity in organs ([3]; Sc-46, Y-91, La-140, Sm-153, chelant to metal 5:1): high concentrations of radioactivity were observed in the liver, spleen, kidney, lung and bone
% Injected Dose in Liver ([4]; Sm, ligand/metal 5:1): 8.4%
% Injected Dose in Liver ([4]; Sm, ligand/metal about 300:1): 4.4%

CC(=O)Nc1ccc(O)c(C(NCCN(CC(=O)O)CC(=O)O)C(=O)O)c1 (stereo not shown) [Example 1, 2-[(2-{[bis(carboxymethyl)]amino}ethyl)amino]-2-(5-acetamido-2-hydroxyphenyl)ethanoic acid]
% Complex ([5]; ligand/metal 10:1): 98%
% Injected Dose in Liver [6]: 0.87%
biodistribution, blood (% dose) [7]: 0.57%
biodistribution, bone (% dose) [7]: 56.1%
biodistribution, liver (% dose) [7]: 0.87%
biodistribution, muscle (% dose) [7]: 0.78%
biodistribution, spleen (% dose) [7]: 0.03%

CC(=O)Nc1ccc(OCC(=O)O)c(C(C(=O)O)N(CCN(CC(=O)O)CC(=O)O)CC(=O)O)c1 (stereo not shown) [Example 2, 2-[(2-{[bis(carboxymethyl)]amino}ethyl) (carboxymethyl)amino]-2-[5-acetamido-2-(carboxymethyloxy)phenyl]ethanoic acid]
% Complex ([5]; ligand/metal 10:1): > 99%
% Complex ([8]; ligand/metal 10:1): > 99%
% Complex ([1]; Metal/Ligand Molar Ratio 1): 99%
% Complex [1, 12]: 94%
% Complex [1, 13]: 84%
% Complex [1, 15]: 75%
% Injected Dose in Liver [6]: 0.22%

CC(=O)Nc1cc(C(C(=O)O)N(CC(=O)O)CC(=O)O)c(O)c(C(C(=O)O)N(CC(=O)O)CC(=O)O)c1 (stereo not shown) [Example 10, 2,6-BIS{[BIS(CARBOXYMETHYL)AMINO](CARBOXY)METHYL}-4-(ACETAMIDO) PHENOL]
% Complex ([5]; ligand/metal 10:1): 98%
biodistribution, blood (% dose) [9]: 0.68%
biodistribution, bone (% dose) [9]: 59%
biodistribution, liver (% dose) [9]: 1.1%
biodistribution, muscle (% dose) [9]: 1.5%
biodistribution, spleen (% dose) [9]: 0.19%
dog's gait [10]: noticeably improved
biodistribution, blood (% dose) (Biodistribution in rats; [16]): 0.09%
biodistribution, bone (% dose) (Biodistribution in rats; [16]): 52.9%
biodistribution, liver (% dose) (Biodistribution in rats; [16]): 0.26%
biodistribution, muscle (% dose) (Biodistribution in rats; [16]): 1.1%
biodistribution, spleen (% dose) (Biodistribution in rats; [16]): 0.007%
biodistribution, blood (% dose) (Biodistribution in rats; [17]): 0.18%
biodistribution, bone (% dose) (Biodistribution in rats; [17]): 48.5%
biodistribution, liver (% dose) (Biodistribution in rats; [17]): 1.3%
biodistribution, muscle (% dose) (Biodistribution in rats; [17]): 0.73%
biodistribution, spleen (% dose) (Biodistribution in rats; [17]): 0.01%
biodistribution, blood (% dose) (Biodistribution in rats; [18]): 0.05%
biodistribution, bone (% dose) (Biodistribution in rats; [18]): 52.7%
biodistribution, liver (% dose) (Biodistribution in rats; [18]): 0.12%
biodistribution, muscle (% dose) (Biodistribution in rats; [18]): 0.23%
biodistribution, spleen (% dose) (Biodistribution in rats; [18]): 0.005%
% Injected Dose in Liver ([4]; Ho, (300)): 0.26%
% Injected Dose in Liver ([4]; Sm, (300)): 0.12%
% Injected Dose in Liver ([4]; Sm, ligand/metal 10:1): 1.3%
% Injected Dose in Liver ([4]; Y, ligand/metal 10:1): 0.39%

Nc1cc(CN(CCN(CC(=O)O)CC(=O)O)CC(=O)O)c(O)c(CN(CCN(CC(=O)O)CC(=O)O)CC(=O)O)c1 [Example 12]
% Complex ([5]; ligand/metal 10:1): 99%
% Complex ([5]; ligand/metal ratio about 1:1): 98%
% Complex ([8]; ligand/metal 10:1): 98%
% Complex ([8]; ligand/metal ratio about 1:1): 98%
% Complex ([1]; Metal/Ligand Molar Ratio 1): 95%
% Complex [1, 12]: 93%
% Complex [1, 13]: 90%
% Complex [1, 14]: 90%
% Complex [1, 15]: 79%
yttrium lost from antibody-complex conjugate [2]: approximately 39%

O=C(O)CN(CC(=O)O)CC(=O)O [NTA, nitrilotri-acetic acid, reference compound]
concentrations of radioactivity in organs ([3]; mouse, in vivo): high concentrations of radioactivity were observed in the liver, spleen, kidney, lung and bone
% Injected Dose in Liver ([4]; Sm, ligand/metal about 300:1): 8.6%

[89Sr] [Strontium-89]
half-life [11]: 50.4 days
